Test results published in US7378433B2, “N-[4-(heteroarylmethyl)phenyl]-heteroarylamines” (Janssen Pharmaceutica, N.V., priority 1996, dated 2008).

Tested on: RA-metabolism in MCF-7 human breast cancer cells
Assay: Inhibition of retinoic acid (RA) metabolism
Format: cell-based
Conditions: MCF7, concentration needed to reduce the amount of polar 3H-RA metabolites to 50% of the control, MCF-7 cells
From the text: The property to delay the metabolism of retinoic acid can be evidenced in various in vitro and in vivo experiments. A particular in vitro procedure is described in example C.1 and tests the inhibitory activity of the compounds of formula (I) on the metabolism of retinoic acid in human breast cancer cells. The compounds of the present invention were also effective in suppressing induced vaginal keratinization effects in ovariectomized rats as is described in example C.2.
MCF-7 human breast cancer cells were grown as stock cultures according to art-known protocols. One day before the experiment, RA is added to the stock cultures to stimulate RA-metabolism. At the start of the experiment, cell suspensions were incubated in a tissue culture medium containing ^3H-RA as the substrate. Different concentrations of the test compound (dissolved in 1% DMSO) were added to the incubation mixtures, and at the end of the incubation, the unmetabolized RA is separated from its polar metabolites. The fraction containing the polar ^3H-labeled metabolites was collected and counted in a scintillation counter. For each experiment, a control and a blank incubation were run in parallel.

Row | Structure (SMILES) | IC50
1 | CCC(CC)C(c1ccc(Nc2nc3ccccc3s2)cc1)n1cncn1 (racemic) [Compound 25, (±)-N-[4-[2-ethyl-1-(1H-1,2,4-triazol-1-yl)butyl]phenyl]-2-benzothiazol-amine] | < 10 nM
2 | Cc1csc(Nc2ccc(C(C(C)C)n3ccnc3)cc2)n1 (racemic) [Compound 50, (±)-N-[4-[1-(1H-imidazol-1-yl)-2-methylpropyl]phenyl]-4-methyl-2-thiazolamine] | < 10 nM
3 | CC(C)C(c1ccc(Nc2nccs2)cc1)n1ccnc1 (racemic) [Compound 51, (±)-N-[4-[1-(1H-imidazol-1-yl)-2-methylpropyl]phenyl]-2-thiazolamine] | < 10 nM
4 | c1ccc2sc(Nc3ccc(Cn4ccnc4)cc3)nc2c1 [Compound 24, N-[4-(1H-imidazol-1-ylmethyl)-phenyl]-2-benzothiazolamine] | < 10 nM
5 | CCC(CC)C(c1ccc(Nc2nc3ccccc3o2)cc1)n1cncn1 (centres unmarked) [Compound 56, N-[4-[2-ethyl-1-(1H-1,2,4-triazol-1-yl)butyl]phenyl]-2-benzoxazolamine] | < 10 nM
